How the values were obtained:
[1] = set-up: method as in unpublished data; details: humans, 14C-labelled pretomanid; ref unpublished data; cited from earlier work
[2] = system: CHO-K1 cells; assay: Chromosome aberration assay in CHO cells
Description: CHO-K1 cells (American Type Culture Collection) were exposed to pretomanid at 22.5 to 360 μg/mL for 4 hours with and without added S9 mix and for 20 hours without added S9 mix. All cells were harvested 20 hours after treatment initiation. The assay was performed using standard procedures, [13] including duplicate cultures and appropriate negative and positive controls. Under each set of conditions, three test concentrations were evaluated. The highest was the lowest precipitating concentration, and two additional lower concentrations also were evaluated.
After incubation, cells were harvested and placed on slides, which were examined microscopically to determine relative mitotic index and to evaluate metaphase spreads for structural or numerical chromosome aberrations. Where possible, 200 metaphase spreads were evaluated. The mean numbers of aberrations in various cultures were compared to reach conclusions about assay validity and clastogenic potential.

[3] = Plasma exposure in the mouse micronucleus study; format: in vivo, mice

| Structure (SMILES) | M50 metabolite as % of the parent compound [1] | Cytotoxicity in CHO cells ([2]; 22.5 to 360 μg/mL, 4 h ±S9, 20 h −S9) | Frequency of chromosome aberrations ([2]; any concentration, P>0.05) | Clastogenic potential in mammalian cells in vitro ([2]; up to 360 μg/mL, 4 h ±S9, 20 h −S9) | Cmax ([3]; male, CD-1(ICR) BR, mouse, single oral dose 2000 mg/kg, plasma) | AUC(0-t) ([3]; male, CD-1(ICR) BR, mouse, single oral dose 2000 mg/kg, plasma, read-out: Mean AUClast) | Dose proportionality of plasma exposure (Cmax and AUC) ([3]; single oral 125 to 2000 mg/kg) |
| --- | --- | --- | --- | --- | --- | --- | --- |
| O=[N+]([O-])c1cn2c(n1)OC[C@@H](O)C2 [M50] | ~6% |  |  |  |  |  |  |
| O=[N+]([O-])c1cn2c(n1)OC[C@@H](OCc1ccc(OC(F)(F)F)cc1)C2 [Pretomanid, (6S)-2-nitro-6-{[4-(trifluoromethoxy)benzyl]oxy}-6,7-dihydro-5H-imidazo[2,1-b][1,3]oxazine] |  | no cytotoxicity was observed | did not significantly increase | negative | 36000 ng/mL | 1140 µg·h/mL | increased less than proportionally with dose level |

Source: article PMC9411704, “Assessment of the Carcinogenic Potential of Pretomanid in Transgenic Tg.rasH2 Mice” (International Journal of Toxicology, 2022)
